According to patent publication US11452725B2, “Chiral diaryl macrocycles and uses thereof” (TURNING POINT THERAPEUTICS, INC., priority 2015, dated 2022):

Key:
DDR1 = biological target: T1, DDR1 (Homo sapiens, UniProt Q08345); assay: Biochemical kinase assay (Reaction Biology); conditions: 10 μM ATP
T1 construct: purchased Reaction Biology Corporation
Method: (§2) Specific kinase/substrate pairs along with required cofactors were prepared in reaction buffer; 20 mM Hepes pH 7.5, 10 mM MgCl2, 1 mM EGTA, 0.02% Brij35, 0.02 mg/ml BSA, 0.1 mM Na3VO4, 2 mM DTT, 1% DMSO (for specific details of individual kinase reaction components see Supplementary Table 2). Compounds were delivered into the reaction, followed ˜20 minutes later by addition of a mixture of ATP (Sigma, St. Louis Mo.) and ^33P ATP (Perkin Elmer, Waltham Mass.) to a final concentration of 10 μM. Reactions were carried out at room temperature for 120 min, followed by spotting of the reactions onto P81 ion exchange filter paper (Whatman Inc., Piscataway, N.J.). […] IC50 values and curve fits were obtained using Prism (GraphPad Software).

LTK = biological target: T2, LTK (Homo sapiens, UniProt P29376); assay: Biochemical kinase assay (Reaction Biology); conditions: 10 μM ATP
T2 construct: purchased Reaction Biology Corporation (contract assay)
Method: as §2

PYK2 = biological target: T3, PYK2 (Homo sapiens, UniProt Q14289); assay: Biochemical kinase assay (Reaction Biology); conditions: 10 μM ATP
T3 construct: purchased Reaction Biology Corporation (contract assay)
Method: as §2

RET = biological target: T4, RET (Homo sapiens, UniProt P07949); assay: Biochemical kinase assay (Reaction Biology); conditions: 10 μM ATP
T4 construct: purchased Reaction Biology Corporation (contract assay)
Method: as §2

AXL = biological target: T5, AXL (Homo sapiens, UniProt P30530); assay: Biochemical kinase assay (Reaction Biology); conditions: 10 μM ATP
T5 construct: purchased Reaction Biology Corporation (contract assay)
Method: as §2

AKT = assay: Immunoblotting downstream signaling, Karpas-299 cells; type: cell-based; conditions: Homo sapiens, read-out: downstream AKT phosphorylation IC50
Method: (§1) NSCLC cell line H2228 (harboring endogenous EML4-ALK fusion gene), HCC78 cells (harboring endogenous SLC34A2-ROS1 fusion gene), Karpas-299 cells (harboring endogenous NPM-ALK fusion gene) or SET-2 (harboring endogenous JAK2V617F activating mutation) were cultured in RPMI medium, and KM12 (harboring endogenous TPM3-TRKA fusion gene) cell line was cultured in DMEM medium, both supplemented with 10% fetal bovine serum and 100 U/mL of penicillin/streptomycin. Ba/F3 and NIH3T3 cells stably expressing ALK or ROS1 (WT or mutant) were culture as mentioned above. […] Protein lysates (approximately 20 μg) was resolved on 4-12% Bolt Bis-Tris precasted gels with MES running buffer (Life Technologies), transferred to nitrocellulose membranes using Trans-Blot Turbo Transfer System (Bio-Rad) and detected with antibodies targeting phosphorylated ALK Y1604 (Cell Signaling Technology), total ALK (Cell Signaling Technology), phosphorylated ROS1 and total ROS1 (Cell Signaling Technology), phosphorylated TRK A/B (Cell Signaling Technology), total TRKA antibody (Santa Cruz Biotechnology), phosphorylated STAT3 and STAT5, total STAT3 and STAT5 (Cell Signaling Technology), phosphorylated AKT (Cell Signaling Technology), total AKT (Cell Signaling Technology), phosphorylated ERK (Cell Signaling Technology), total ERK (Cell Signaling Technology) and Tubulin (Sigma). […]

STAT3 = assay: as above; type: cell-based; conditions: Homo sapiens, read-out: downstream STAT3 phosphorylation IC50
Method: as §1

paxillin = assay: Immunoblotting SRC substrate phosphorylation, NCI-H2228 cells; type: cell-based; conditions: Homo sapiens; NCI-H2228 cell line
Method: NSCLC cell line H2228 (harboring endogenous EML4-ALK fusion gene) was cultured in RPMI medium supplemented with 10% fetal bovine serum and 100 U/mL of penicillin/streptomycin. Ba/F3 and NIH3T3 cells stably expressing ROS1, or TRKA, or TRKB, or TRKC (WT or mutant) were cultured as mentioned above. […] Cells were collected after treatment and lysed in RIPA buffer (50 mM Tris, pH 7.4, 150 mM NaCl, 1% NP-40, 0.5% Deoxycholate, 0.1% SDS) supplemented with 10 mM EDTA, 1× Halt protease and phosphatase inhibitors (Thermo Scientific). Protein lysates (approximately 20 μg) was resolved on 4-12% Bolt Bis-Tris precasted gels with MES running buffer (Life Technologies), transferred to nitrocellulose membranes using Trans-Blot Turbo Transfer System (Bio-Rad) and detected with antibodies targeting phosphorylated phosphorylated ROS1 and total ROS1 (Cell Signaling Technology), phosphorylated TRK A/B (Cell Signaling Technology), total TRKA antibody (Santa Cruz Biotechnology), phosphorylated SRC Y416 (Cell Signaling Technology), total SRC (Cell Signaling Technology), phosphorylated FAK Y576/577 (Cell Signaling Technology), total FAK (Cell Signaling Technology), phosphorylated paxillin Y118 (Cell Signaling Technology), total paxillin (Cell Signaling Technology), phosphorylated EGFR and total EGFR, CD44, and Tubulin (Sigma). […]

[1] = test system: Ba/F3 EML4-ALK G1202R tumors; assay: Ba/F3 EML4-ALK G1202R subcutaneous xenograft model; type: in vivo, SCID/Beige mice; conditions: 75 mg/kg BID orally, 17 days
[2] = test system: Ba/F3 CD74-ROS1 G2032R tumors; assay: Ba/F3 CD74-ROS1 G2032R subcutaneous xenograft model; type: in vivo, SCID/Beige mice; conditions: 11 days
Method: Female athymic nude mice and SCID/Beige mice (5-8 weeks of age) were obtained from Charles River Laboratory and were housed in Innovive IVC disposable cages on HEPA filtered ventilated racks with ad libitum access to rodent chow and water. Five million cells in 100 μL serum-free medium were implanted subcutaneously in the right flank region of the mouse. […] All models were implanted with 50% matrigel (Corning, Inc) in the medium. Tumor size and body weight were measured on designated days. Tumor size was measured with an electronic caliper and tumor volume was calculated as the product of length*width^2*0.5.
The control group of mice were given vehicle only.

T1 sequence (Q08345 19-913): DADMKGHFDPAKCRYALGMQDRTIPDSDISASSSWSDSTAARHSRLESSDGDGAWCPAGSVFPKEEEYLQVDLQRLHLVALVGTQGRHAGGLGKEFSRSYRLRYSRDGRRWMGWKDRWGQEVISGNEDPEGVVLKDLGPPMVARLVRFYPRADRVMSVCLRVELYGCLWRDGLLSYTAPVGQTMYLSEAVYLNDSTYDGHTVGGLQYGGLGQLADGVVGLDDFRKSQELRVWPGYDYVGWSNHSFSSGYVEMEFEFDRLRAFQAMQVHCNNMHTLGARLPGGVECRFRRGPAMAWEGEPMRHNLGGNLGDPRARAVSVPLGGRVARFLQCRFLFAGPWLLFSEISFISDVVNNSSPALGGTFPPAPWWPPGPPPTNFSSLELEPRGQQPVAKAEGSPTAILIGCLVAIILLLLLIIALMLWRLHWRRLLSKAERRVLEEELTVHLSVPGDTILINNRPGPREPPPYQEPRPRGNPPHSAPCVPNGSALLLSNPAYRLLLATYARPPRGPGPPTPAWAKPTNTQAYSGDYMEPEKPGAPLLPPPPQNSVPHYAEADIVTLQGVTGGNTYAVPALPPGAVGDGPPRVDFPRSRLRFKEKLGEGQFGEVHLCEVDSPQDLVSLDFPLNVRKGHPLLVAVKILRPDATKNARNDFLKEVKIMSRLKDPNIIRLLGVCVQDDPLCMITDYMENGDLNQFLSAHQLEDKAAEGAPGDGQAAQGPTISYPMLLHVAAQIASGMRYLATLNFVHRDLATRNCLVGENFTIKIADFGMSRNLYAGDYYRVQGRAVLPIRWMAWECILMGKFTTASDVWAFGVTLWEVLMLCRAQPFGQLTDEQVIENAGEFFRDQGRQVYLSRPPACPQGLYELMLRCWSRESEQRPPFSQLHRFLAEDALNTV
T4 sequence (P07949 29-1114): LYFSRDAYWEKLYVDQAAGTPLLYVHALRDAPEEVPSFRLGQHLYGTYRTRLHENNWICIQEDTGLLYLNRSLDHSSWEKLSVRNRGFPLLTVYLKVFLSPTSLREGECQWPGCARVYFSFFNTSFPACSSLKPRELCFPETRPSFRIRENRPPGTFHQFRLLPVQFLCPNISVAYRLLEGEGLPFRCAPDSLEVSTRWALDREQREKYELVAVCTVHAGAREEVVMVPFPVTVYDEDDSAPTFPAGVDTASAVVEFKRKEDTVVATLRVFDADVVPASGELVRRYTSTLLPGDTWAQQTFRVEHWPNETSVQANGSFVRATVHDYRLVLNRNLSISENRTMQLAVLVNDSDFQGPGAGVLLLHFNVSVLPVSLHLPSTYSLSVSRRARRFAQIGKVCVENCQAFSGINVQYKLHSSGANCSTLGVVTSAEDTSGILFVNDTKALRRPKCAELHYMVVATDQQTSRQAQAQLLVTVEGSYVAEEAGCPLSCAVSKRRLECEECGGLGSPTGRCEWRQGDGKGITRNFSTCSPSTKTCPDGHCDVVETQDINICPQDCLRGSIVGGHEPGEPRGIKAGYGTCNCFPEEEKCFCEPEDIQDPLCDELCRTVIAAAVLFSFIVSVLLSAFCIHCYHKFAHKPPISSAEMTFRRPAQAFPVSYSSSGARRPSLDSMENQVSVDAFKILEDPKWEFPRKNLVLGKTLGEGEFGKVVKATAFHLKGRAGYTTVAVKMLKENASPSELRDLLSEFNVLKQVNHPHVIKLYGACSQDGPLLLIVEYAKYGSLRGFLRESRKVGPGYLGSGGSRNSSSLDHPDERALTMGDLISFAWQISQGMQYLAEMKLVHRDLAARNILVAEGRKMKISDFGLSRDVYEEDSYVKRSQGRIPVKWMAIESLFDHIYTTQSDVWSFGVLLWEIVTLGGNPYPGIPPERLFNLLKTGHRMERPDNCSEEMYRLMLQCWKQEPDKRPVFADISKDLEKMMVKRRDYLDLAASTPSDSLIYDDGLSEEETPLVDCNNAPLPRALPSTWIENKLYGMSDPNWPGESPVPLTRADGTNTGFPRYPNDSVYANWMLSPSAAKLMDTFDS
T2 sequence (P29376 17-864): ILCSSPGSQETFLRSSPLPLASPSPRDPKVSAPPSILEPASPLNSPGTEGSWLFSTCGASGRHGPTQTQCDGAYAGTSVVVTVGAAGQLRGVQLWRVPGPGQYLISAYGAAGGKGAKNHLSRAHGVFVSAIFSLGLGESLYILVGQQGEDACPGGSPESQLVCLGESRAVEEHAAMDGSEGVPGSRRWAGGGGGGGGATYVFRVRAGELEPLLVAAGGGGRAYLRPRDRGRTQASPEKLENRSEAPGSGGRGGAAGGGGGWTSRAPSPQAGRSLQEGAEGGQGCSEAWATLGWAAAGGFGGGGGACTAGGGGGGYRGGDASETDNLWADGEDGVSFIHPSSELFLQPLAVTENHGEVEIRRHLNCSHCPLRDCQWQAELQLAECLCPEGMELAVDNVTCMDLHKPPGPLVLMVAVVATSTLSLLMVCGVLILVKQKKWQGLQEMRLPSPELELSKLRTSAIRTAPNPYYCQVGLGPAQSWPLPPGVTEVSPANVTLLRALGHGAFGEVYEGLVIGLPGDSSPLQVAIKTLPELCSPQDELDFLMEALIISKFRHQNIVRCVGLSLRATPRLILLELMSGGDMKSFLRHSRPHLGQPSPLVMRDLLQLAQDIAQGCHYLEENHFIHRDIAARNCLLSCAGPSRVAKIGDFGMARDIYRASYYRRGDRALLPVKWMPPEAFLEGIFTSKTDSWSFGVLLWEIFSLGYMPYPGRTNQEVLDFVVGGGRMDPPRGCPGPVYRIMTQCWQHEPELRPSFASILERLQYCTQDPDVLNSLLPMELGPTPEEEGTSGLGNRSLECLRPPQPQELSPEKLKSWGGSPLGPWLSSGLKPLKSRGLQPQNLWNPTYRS
T5 sequence (P30530 26-894): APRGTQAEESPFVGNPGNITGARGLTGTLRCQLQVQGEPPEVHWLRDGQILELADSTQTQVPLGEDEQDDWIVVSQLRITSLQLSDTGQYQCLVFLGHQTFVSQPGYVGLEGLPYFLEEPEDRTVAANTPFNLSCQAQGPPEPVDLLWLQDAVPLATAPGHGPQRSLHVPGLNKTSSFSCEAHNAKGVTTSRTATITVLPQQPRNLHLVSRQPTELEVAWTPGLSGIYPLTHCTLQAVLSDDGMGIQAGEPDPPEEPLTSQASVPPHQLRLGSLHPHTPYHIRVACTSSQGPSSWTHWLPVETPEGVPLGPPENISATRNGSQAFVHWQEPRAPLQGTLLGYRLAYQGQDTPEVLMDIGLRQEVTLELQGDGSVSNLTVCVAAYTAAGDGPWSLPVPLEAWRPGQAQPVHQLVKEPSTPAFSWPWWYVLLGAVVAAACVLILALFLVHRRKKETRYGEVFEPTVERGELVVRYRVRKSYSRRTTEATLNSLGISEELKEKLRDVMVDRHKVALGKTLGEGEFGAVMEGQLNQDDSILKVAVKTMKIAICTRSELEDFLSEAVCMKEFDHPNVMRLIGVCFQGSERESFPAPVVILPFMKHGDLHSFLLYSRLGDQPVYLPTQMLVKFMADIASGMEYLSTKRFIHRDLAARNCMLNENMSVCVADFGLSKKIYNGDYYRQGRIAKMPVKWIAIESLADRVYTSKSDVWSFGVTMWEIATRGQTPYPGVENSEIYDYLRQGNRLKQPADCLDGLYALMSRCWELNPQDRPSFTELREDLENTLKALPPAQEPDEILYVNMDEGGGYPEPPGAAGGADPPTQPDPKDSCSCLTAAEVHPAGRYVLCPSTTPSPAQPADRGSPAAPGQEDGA
T3 sequence (Q14289 whole entry): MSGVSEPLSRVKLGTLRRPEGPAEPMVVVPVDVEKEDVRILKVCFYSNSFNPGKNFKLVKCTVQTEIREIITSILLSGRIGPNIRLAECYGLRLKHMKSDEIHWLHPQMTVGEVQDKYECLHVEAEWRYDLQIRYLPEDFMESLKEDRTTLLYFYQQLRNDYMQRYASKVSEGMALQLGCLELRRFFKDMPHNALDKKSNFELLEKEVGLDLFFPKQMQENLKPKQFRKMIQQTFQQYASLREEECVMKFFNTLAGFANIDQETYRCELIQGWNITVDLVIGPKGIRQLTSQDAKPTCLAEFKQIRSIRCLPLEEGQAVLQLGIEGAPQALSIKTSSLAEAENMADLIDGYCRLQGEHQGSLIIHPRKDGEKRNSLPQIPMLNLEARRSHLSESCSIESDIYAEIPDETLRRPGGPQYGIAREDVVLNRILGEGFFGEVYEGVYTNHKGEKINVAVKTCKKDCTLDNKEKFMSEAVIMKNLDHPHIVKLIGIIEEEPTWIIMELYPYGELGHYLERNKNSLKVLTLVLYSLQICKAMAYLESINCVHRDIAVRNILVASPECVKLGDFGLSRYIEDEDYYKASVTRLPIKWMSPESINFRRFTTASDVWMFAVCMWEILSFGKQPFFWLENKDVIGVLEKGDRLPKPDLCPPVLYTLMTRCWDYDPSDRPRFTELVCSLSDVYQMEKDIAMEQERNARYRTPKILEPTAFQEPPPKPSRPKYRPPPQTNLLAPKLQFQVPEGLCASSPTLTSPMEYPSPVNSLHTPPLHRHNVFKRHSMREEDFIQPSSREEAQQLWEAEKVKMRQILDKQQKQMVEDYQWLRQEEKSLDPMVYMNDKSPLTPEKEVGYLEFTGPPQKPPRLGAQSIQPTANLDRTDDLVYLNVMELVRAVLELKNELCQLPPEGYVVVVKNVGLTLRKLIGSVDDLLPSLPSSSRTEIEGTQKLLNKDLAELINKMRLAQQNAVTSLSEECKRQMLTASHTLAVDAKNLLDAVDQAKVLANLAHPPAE

Compound: C[C@H]1CNC(=O)c2cnn3ccc(nc23)N[C@H](C)c2cc(F)ccc2O1 [Compound 1, (7S,13R)-11-fluoro-7,13-dimethyl-6,7,13,14-tetrahydro-1,15-ethenopyrazolo[4,3-f][1,4,8,10]benzoxatriazacyclotridecin-4(5H)-one]
- IC50 (DDR1): 5.7 nM
- IC50 (LTK): 21.8 nM
- IC50 (PYK2): 39.9 nM
- IC50 (RET): 47.1 nM
- IC50 (AXL): 149 nM
- IC50 (AKT): 1 to 3 nM
- IC50 (STAT3): 1 to 3 nM
- IC50 (paxillin): ~103 nM
- mice exhibiting tumor regression [1]: 4 of 8
- mice exhibiting tumor regression ([2]; 15 mg/kg/BID orally): 2 of 8
- mice exhibiting complete tumor regression ([2]; 75 mg/kg BID orally): 8 of 8
- tumor regression (REG) ([2]; 75 mg/kg BID orally): 100%
